This note sets out measurements from patent US11912663B2, “Multi-targeted tyrosine kinase inhibitors and their pharmaceutical uses” (Shanghai AB PharmaTech Ltd., priority 2021, dated 2024).

Bounds are passed on as bounds.

In data set [1] the test system is lung cancer cell line (A549). As to the kind of experiment: tumor cell proliferation inhibition (CTG), lung cancer cell line. The conditions noted are these: Homo sapiens, 72 hours. Format: cell-based.
In data set [2] the test system is leukemia cell line (K562). As to the kind of experiment: tumor cell proliferation inhibition (CTG), leukemia cell line. Type of data set: cell-based. The settings on record: Homo sapiens, 72 hours.
The next data set deals with prostatic cancer (PC-3). Kind of data set: tumor cell proliferation inhibition (CTG), PC-3. Format: cell-based. The settings on record: 72 hours.
For another data set, the target named is VEGFR2 (KDR) (Homo sapiens (Human), UniProt P35968). As to the kind of experiment: kinase inhibition, Mobility-Shift Assay. Format: biochemical. The settings on record: VEGFR2, 92 μM ATP.
Sequence of VEGFR2 (KDR) (P35968 20-1356): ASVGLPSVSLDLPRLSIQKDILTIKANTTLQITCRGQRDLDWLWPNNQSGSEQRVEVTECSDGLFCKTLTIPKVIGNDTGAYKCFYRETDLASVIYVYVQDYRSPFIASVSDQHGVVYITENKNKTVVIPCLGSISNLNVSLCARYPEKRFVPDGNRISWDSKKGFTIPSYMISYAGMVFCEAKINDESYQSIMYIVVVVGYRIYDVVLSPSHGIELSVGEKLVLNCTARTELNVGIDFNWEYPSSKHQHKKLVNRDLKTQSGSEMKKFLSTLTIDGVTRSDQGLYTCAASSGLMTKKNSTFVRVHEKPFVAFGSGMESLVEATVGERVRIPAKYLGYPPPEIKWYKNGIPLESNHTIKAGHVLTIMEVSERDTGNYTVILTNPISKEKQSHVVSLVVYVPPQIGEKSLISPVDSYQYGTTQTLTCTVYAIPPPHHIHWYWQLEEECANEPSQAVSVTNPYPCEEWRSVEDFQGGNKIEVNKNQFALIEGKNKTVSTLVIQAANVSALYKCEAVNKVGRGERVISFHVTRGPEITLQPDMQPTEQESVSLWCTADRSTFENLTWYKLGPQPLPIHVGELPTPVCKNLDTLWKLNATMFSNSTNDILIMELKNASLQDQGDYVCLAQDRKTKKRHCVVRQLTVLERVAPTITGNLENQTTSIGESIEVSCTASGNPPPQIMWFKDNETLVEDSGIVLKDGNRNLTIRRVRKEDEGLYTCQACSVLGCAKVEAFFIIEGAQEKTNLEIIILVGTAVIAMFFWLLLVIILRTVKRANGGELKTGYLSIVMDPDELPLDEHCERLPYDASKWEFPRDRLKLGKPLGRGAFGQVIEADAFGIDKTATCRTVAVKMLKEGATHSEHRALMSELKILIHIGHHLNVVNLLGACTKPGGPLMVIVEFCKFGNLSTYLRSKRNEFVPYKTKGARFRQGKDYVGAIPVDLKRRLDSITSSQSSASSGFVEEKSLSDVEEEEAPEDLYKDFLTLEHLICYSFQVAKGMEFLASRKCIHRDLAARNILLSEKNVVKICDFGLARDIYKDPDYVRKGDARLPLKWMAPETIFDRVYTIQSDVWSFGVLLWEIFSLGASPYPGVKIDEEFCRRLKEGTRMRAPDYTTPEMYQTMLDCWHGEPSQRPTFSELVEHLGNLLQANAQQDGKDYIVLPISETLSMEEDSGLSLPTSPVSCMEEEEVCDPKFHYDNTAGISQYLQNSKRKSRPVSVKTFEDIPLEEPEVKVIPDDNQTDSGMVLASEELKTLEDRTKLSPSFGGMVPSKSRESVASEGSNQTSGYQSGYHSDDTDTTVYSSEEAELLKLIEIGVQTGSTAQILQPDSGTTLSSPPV
For data set [3], the system named is pancreatic cancer cell line (BXPC3). Kind of data set: tumor cell proliferation inhibition (CTG), pancreatic cancer cell line. Format: cell-based. The conditions noted are these: Homo sapiens, BXPC-3, 72 hours.
Data set [4] concerns gastric cancer cell line (SNU16). Kind of data set: tumor cell proliferation inhibition (CTG), gastric cancer cell line. Format: cell-based. The conditions noted are these: Homo sapiens, SNU-16, 72 hours, read-out: SUN16 IC50.
The target of another data set is FGFR2 (Homo sapiens (Human), UniProt P21802). As to the kind of experiment: kinase inhibition, Mobility-Shift Assay. Type of data set: biochemical. The conditions noted are these: 1.9 μM ATP.
Sequence of FGFR2 (P21802 22-821): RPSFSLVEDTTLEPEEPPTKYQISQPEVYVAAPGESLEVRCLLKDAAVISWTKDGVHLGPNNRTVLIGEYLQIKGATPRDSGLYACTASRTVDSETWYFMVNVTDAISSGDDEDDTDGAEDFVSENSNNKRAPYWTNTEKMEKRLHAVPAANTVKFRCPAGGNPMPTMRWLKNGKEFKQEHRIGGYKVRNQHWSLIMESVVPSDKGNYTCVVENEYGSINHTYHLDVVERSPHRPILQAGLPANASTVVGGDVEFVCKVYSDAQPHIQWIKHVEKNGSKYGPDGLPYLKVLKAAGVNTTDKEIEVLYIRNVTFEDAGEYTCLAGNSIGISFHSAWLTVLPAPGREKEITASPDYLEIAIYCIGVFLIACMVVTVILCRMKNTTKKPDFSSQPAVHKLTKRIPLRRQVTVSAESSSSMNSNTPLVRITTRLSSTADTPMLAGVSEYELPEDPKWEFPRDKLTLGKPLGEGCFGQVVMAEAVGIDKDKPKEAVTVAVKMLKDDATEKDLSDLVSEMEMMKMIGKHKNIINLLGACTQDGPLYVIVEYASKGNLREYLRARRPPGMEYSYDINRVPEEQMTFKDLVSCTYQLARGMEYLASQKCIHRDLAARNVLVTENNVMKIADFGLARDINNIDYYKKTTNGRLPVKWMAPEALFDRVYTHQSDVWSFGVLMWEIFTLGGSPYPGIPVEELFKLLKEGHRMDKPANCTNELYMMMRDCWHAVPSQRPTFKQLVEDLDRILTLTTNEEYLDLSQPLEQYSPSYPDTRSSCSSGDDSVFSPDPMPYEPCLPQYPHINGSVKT
Data set [5] can be described thus: MTD toxicity test in rats. Format: in vivo. The settings on record: 150 mg/kg; for MTD toxicity test, clinical outcome: rat, in vivo; for autopsy results of organs: rats, QD, 14 days, heart, liver, lungs, kidneys, stomach, intestines and other organs.
The subject of data set [6] is BXPC3, SNU16, Hep3B 2.1-7 subcutaneous tumors. Kind of data set: tumor suppression in nude mice with subcutaneously transplanted tumors. Format: in vivo. The settings on record: BXPC3, SNU16, Hep3B 2.1-7 transplants, within 3-4 weeks. The text has this:
These preferred compounds (e.g., IIIb-08, IIIb-09, IIIb-45, IIIb-50, IIIb-55, IIIb-56, IIIb-57, IIIb-58, IIIb-60, IIIb-61, IIIb-65) are currently being used to […] in nude mice subcutaneously transplanted with pancreatic cancer cell line (BXPC3), gastric cancer cell line (SNU16), liver cancer cell line (Hep3B 2.1-7) and other tumor suppressive effects have been observed in vivo, the tumor suppression rate of subcutaneous tumors in nude mice could reach 80-110% within 3-4 weeks. […] Therefore, the preferred compounds “IIIb-08, IIIb-09, IIIb-45, IIIb-50, IIIb-55, IIIb-56, IIIb-57, IIIb-58, IIIb-60, IIIb-61, IIIb-65” designed and synthesized by the present invention not only have better inhibitory activity, but also have better safety and drug-forming properties, which are valuable for further preclinical studies such as pharmacotoxicology and clinical trials.

Another data set has as its target VEGFR1 (FLT1) (Homo sapiens (Human), UniProt P17948). Kind of data set: kinase inhibition, Mobility-Shift Assay. The settings on record: 278 μM ATP. Type of data set: biochemical.
The test system of data set [7] is hepatocellular carcinoma cell line (Hep3B 2.1-7). Kind of data set: tumor cell proliferation inhibition (CTG), hepatocellular carcinoma cell line. The conditions noted are these: Homo sapiens, 72 hours. Format: cell-based.
Another data set concerns the target hERG potassium channels (Homo sapiens (Human), UniProt Q12809). As to the kind of experiment: in vitro inhibitory effect of hERG, whole-cell patch clamp. Type of data set: cell-based. The settings on record: whole-cell recording, room temperature. A general note: Block of hERG is tested as a sign of cardiac risk.
A further data set concerns the target VEGFR3 (FLT4) (Homo sapiens (Human), UniProt P35916). Kind of data set: kinase inhibition, Mobility-Shift Assay. Format: biochemical. The settings on record: 84 μM ATP.
Another data set concerns the target RET (Homo sapiens (Human), UniProt P07949). Kind of data set: kinase inhibition, Mobility-Shift Assay. Type of data set: biochemical. The settings on record: 23 μM ATP.
The test system of data set [8] is cervical cancer cell lines (Hela). As to the kind of experiment: tumor cell proliferation inhibition (CTG), cervical cancer cell line. Type of data set: cell-based. The settings on record: Homo sapiens, 72 hours.
Data set [9] has as its system kidney cancer cell line (Caki-1). As to the kind of experiment: tumor cell proliferation inhibition (CTG), kidney cancer cell line. Format: cell-based. The conditions noted are these: Homo sapiens, 72 hours, read-out: Caki-1 (renal cancer) IC50.

Sequence of hERG potassium channels (Q12809 whole entry): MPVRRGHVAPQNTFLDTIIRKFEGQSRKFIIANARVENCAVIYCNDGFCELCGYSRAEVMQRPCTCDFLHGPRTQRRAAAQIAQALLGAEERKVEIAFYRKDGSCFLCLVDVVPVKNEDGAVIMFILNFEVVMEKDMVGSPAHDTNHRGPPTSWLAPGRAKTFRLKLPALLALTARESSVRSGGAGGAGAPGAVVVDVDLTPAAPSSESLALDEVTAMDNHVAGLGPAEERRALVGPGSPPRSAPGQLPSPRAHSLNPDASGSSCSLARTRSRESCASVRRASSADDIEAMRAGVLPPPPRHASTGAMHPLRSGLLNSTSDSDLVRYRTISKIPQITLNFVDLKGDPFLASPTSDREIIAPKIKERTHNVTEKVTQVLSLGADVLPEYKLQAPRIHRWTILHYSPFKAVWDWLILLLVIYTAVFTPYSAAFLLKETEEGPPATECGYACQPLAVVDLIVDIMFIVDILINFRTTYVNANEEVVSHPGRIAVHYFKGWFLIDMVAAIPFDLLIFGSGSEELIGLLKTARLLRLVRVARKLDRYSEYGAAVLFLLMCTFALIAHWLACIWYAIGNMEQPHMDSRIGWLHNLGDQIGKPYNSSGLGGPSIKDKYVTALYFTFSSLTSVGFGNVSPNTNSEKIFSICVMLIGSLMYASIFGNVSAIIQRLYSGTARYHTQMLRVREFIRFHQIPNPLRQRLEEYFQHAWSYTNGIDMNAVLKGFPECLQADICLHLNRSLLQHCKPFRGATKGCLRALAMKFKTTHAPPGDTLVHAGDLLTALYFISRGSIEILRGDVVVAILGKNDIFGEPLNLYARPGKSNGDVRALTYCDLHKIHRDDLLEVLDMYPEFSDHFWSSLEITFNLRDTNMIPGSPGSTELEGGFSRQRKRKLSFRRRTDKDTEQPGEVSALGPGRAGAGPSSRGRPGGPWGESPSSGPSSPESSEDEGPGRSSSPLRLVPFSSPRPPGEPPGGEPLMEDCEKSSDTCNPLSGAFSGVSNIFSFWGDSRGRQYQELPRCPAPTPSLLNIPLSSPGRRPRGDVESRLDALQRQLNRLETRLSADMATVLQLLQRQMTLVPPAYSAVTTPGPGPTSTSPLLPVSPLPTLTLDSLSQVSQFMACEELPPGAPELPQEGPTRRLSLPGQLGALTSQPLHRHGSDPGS
Sequence of VEGFR1 (FLT1) (P17948 27-1338): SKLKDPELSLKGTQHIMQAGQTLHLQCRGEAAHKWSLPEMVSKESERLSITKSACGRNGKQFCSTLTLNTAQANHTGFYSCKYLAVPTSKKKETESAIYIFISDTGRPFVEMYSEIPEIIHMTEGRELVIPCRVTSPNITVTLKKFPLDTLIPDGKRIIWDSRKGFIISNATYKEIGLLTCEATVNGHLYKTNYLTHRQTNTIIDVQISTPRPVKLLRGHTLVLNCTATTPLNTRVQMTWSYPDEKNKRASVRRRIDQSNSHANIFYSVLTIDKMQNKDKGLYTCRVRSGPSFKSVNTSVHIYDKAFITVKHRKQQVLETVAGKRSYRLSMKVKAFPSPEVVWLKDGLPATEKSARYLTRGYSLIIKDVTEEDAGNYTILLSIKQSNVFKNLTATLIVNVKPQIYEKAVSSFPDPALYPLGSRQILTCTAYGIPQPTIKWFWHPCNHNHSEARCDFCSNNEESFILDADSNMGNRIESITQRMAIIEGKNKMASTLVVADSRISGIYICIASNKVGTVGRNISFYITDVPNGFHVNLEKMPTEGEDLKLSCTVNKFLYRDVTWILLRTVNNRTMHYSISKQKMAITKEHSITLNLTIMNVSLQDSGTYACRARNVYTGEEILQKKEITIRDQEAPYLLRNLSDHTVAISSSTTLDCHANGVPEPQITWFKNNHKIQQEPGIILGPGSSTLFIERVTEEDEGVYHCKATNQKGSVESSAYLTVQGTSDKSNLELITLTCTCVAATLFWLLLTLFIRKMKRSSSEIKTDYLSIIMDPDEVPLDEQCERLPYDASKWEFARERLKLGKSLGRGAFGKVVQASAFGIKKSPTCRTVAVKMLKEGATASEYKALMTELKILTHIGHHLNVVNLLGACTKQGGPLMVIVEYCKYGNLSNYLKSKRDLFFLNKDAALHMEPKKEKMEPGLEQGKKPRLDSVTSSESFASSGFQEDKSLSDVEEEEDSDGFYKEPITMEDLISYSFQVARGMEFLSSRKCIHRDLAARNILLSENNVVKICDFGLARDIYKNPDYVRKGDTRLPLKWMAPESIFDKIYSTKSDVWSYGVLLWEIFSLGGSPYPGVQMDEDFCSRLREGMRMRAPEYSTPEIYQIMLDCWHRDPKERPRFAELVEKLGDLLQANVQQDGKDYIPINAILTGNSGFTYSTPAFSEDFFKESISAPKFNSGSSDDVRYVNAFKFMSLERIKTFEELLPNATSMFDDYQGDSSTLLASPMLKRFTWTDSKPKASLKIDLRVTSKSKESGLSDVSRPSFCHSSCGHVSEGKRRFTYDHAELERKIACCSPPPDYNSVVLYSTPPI

As to `COc1cc2nccc(Oc3c(F)cc(NC(=O)NC4CC4)c(Cl)c3F)c2cc1C(=O)NCC(F)(F)F` [IIIb-09], the IC50 in data set [1] was less than 2500 nM; in [2], less than 5000 nM; in the data set with prostatic cancer (PC-3), greater than 10000 nM; at VEGFR2 (KDR) it was less than 5 nM; in data set [3] it was less than 5000 nM; in data set [4], less than 5000 nM. Moreover, the concentration for half-maximal inhibition (IC50) was 50 to 100 nM on FGFR2; 5 to 10 nM at VEGFR1 (FLT1); less than 2500 nM in [7]; greater than 30000 nM at hERG potassium channels; less than 5 nM on VEGFR3 (FLT4); 5 to 10 nM on RET. Also, the values for the IC50 in [8] and in data set [9] were less than 5000 nM and less than 2500 nM, respectively. Besides, the “MTD toxicity test, clinical outcome” value in [5] was “no abnormalities such as death”. In [5], the “autopsy results of organs” value was “did not reveal any abnormal changes”. The “tumor suppression rate of subcutaneous tumors” value (shortened to “tumor suppression rate”) in [6] is on record as 80-110%.

`N#CCCOc1cc2nccc(Oc3c(F)cc(NC(=O)NC4CC4)c(Cl)c3F)c2cc1C(N)=O` [IIIb-65]: the IC50 is less than 2500 nM in [1]; less than 5000 nM in data set [2]; 5000 to 10000 nM in the data set on prostatic cancer (PC-3); less than 5 nM at VEGFR2 (KDR); less than 5000 nM in data set [3]; less than 5000 nM in data set [4]. For the same molecule, the half-inhibitory concentration (IC50) was less than 50 nM on FGFR2; less than 5 nM at VEGFR1 (FLT1); less than 2500 nM in data set [7]; greater than 30000 nM against hERG potassium channels; less than 5 nM at VEGFR3 (FLT4); less than 5 nM at RET. The concentration for half-maximal inhibition (IC50) in [8] was less than 5000 nM; in data set [9], less than 2500 nM. In addition, the “MTD toxicity test, clinical outcome” value in data set [5] was “no abnormalities such as death”. Moreover, in data set [5], the “autopsy results of organs” value was “did not reveal any abnormal changes”. Besides, in data set [6], the “tumor suppression rate” value is on record as 80-110%.

Regarding `NC(=O)c1cc2c(Oc3c(F)cc(NC(=O)NC4CC4)c(Cl)c3F)ccnc2cc1OCCO` [IIIb-60], the half-maximal inhibitory concentration (IC50) is less than 2500 nM in data set [1]; less than 5000 nM in data set [2]; 5000 to 10000 nM in the data set with prostatic cancer (PC-3); less than 5 nM at VEGFR2 (KDR); less than 5000 nM in [3]; less than 5000 nM in data set [4]. In addition, the IC50 was less than 50 nM on FGFR2; less than 5 nM at VEGFR1 (FLT1); less than 2500 nM in [7]; greater than 30000 nM against hERG potassium channels; less than 5 nM on VEGFR3 (FLT4); less than 5 nM on RET. The values for the half-maximal inhibitory concentration (IC50) in data set [8] and in data set [9] were less than 5000 nM and less than 2500 nM, respectively. Besides, the “MTD toxicity test, clinical outcome” value in [5] is given as “no abnormalities such as death”. For the same molecule, the “autopsy results of organs” value in data set [5] is “did not reveal any abnormal changes”. In data set [6], the “tumor suppression rate” value is reported as 80-110%.

Take `NC(=O)c1cc2c(Oc3c(F)cc(NC(=O)NC4CC4)c(Cl)c3F)ccnc2cc1OCC(F)(F)F` [IIIb-57]: the IC50 in [1] is less than 2500 nM; in data set [2], less than 5000 nM; in the data set on prostatic cancer (PC-3), 5000 to 10000 nM; on VEGFR2 (KDR) it was less than 5 nM; in data set [3] it was less than 5000 nM; in data set [4], less than 5000 nM. Moreover, the IC50 was less than 50 nM on FGFR2; less than 5 nM on VEGFR1 (FLT1); less than 2500 nM in [7]; greater than 30000 nM on hERG potassium channels; less than 5 nM at VEGFR3 (FLT4); less than 5 nM on RET. Also, the values for the IC50 in [8] and in data set [9] were less than 5000 nM and less than 2500 nM, respectively. Further, in data set [5], the “MTD toxicity test, clinical outcome” value is recorded as “no abnormalities such as death”. For the same molecule, the “autopsy results of organs” value in [5] is “did not reveal any abnormal changes”. In addition, the “tumor suppression rate” value in data set [6] is recorded as 80-110%.

What is called IC50 is the concentration that inhibits the measured activity by half.
